Measured values reported in patent publication US7074807B2, “Compositions and methods for inducing cell death” (Georgetown University, priority 1998, dated 2006).

How the values were obtained:
[1] = test system: MDA-MB231 human breast tumor xenografts; assay: Tumor growth study, MDA-MB231 breast tumor xenografts in athymic mice; type: in vivo; details: 200 mg/kg intratumoral once daily for 8 days, vs 10% ethanol vehicle group
Experimental: FIGS. (13A), (13B1–13B2) illustrates the effects of tempo on the growth of human breast tumor xenografts in athymic mice. 13A. Tempo (200 mg/kg) was administered intratumorally once daily for a total of 8 days (*). Control group was treated simultaneously with an equal volume of ethanol (10%). Experiment was terminated when the control tumor volumes exceeded the recommended tumor burden. Each point represents mean q S.E. (n=4). […] (13B1–13B2). Representative tumor-bearing mice. Mice were treated with 10% ethanol (13B1) or tempo (13B2) as explained above.
MDA-MB231 cells (1×10^6) were inoculated subcutaneously in the right flank of 4–6 week-old female athymic mice. Tumor growth was monitored biweekly. Mice bearing tumor volumes in the range of 80–100 mm^3 were randomly selected for treatment. Tempo treatment was initiated (50 mg/kg–200 mg/kg, intratumoral, once daily, for a total of 8 days), and tumor volumes were measured for a total 25 days from the start of treatment.

LNCaP cells [2] = assay: Annexin V apoptosis in prostate cancer cells (5% BCS); type: cell-based, human
Experimental: (§1) Cells were grown overnight in medium containing 10% BCS in T-25 flasks, switched to medium containing 5% BCS and treated with tempo. Following treatment, cells were washed, trypsinized, and resuspended in […] of 1× binding buffer as described before. […] (9A1–9A3): Cytograms of untreated (9A1); 0.1% ethanol-treated (24 hr) (9A2); and tempo-treated DU145 cells (2.5 mM, 24 hr) (9A3). […] (9B1–9B2), (9C1–9C2), (9D1–9D2): apoptosis (9B1, 9C1, 9D1) and necrosis (9B2, 9C2, […]) in cells treated with tempo (B, 2.5 mM; C, 24 hr; D, doses and times as indicated). Values shown are mean q S.D. of triplicate determination per point in each treatment category.
(§2) To investigate tempo's effect on prostate cancer cells, human androgen-independent prostate cancer-derived cell lines (DU145 and PC3) were grown to near confluence in 75 cm^2-tissue flasks in Improved Minimum Essential Medium (IMEM) (Cellgro) containing 10% bovine calf serum (BCS) supplemented with 2 mM L-glutamine and 200 IU/ml penicillin and streptomycin mixture in a humidified atmosphere of 5% CO2:95% air at 37° C. Human androgen-dependent prostate cancer-derived cell line (LNCaP) was cultured in RPMI 1640 medium containing 10% BCS and 2 mM L-glutamine. Cells were trypsinized and seeded in equal numbers overnight in 150 mm^2 tissue culture dishes (two dishes per flask) or 25 cm^2 flasks (1×10^6 cells per flask). Cells were treated in medium containing 5% BCS with desired concentration of tempo for various times. Tempo was dissolved in ethanol (0.1%) before use. Control cultures were treated with ethanol (0.1%) for various times. Following treatment, cells were washed 3 times with PBS. […] In LNCaP cells, a relatively higher level of apoptosis was observed (1 mM tempo, 24 hr, approximately 12-fold; 5 mM, 4 hr, approximately 15-fold) (FIGS. 9A1, 9A2, 9A3, 9B1, 9B2, 9C1, 9C2, 9D1, 9D2).

PC-3 cells = assay: as above; type: cell-based, human; details: 2.5 mM, 24 hr
Experimental: as §1, §2

DU145 cells = assay: as above; type: cell-based, human; details: 2.5 mM, 24 hr
Experimental: as §1, §2

LNCaP cells [3] = assay: Light and transmission electron microscopy of LNCaP cells; type: cell-based, human
Experimental: LNCaP cells ([…]) were seeded in 25 cm2 tissue culture flasks in RPMI medium containing 10% BCS overnight, followed by change to RPMI medium containing 5% BCS stimulation with 0.1% ethanol (control, 11A1, 11B1) or tempo (2.5 mM, 11A2, 11B2) for indicated times.
12A1, untreated, 4,000×; 12A2, a portion of the cell shown in 12A1, 20,000×; 12B1, 0.1% ethanol, 24 hr, 4,000×; 12B2, a portion of the cell shown in 12B1, 20,000×; 12C1, 5 mM tempo, 24 hr, 4,000×; 12C2, a portion of the cell shown in 12C1, […]; 12D, 5 mM tempo, 24 hr, a portion of another cell, 20,000×. M, mitrochondria; G, golgi apparatus; RER, rough endoplasmic reticulum; Cy, cytoplasm; N, nucleus; Arrow in panel C2 indicates swelling in the nuclear membrane.
LNCaP cells were treated with tempo as described in legend to FIG. 2. Following treatment, monolayer cells were washed three times with PBS, and fixed in 2.5% glutaraldehyde/3% paraformaldehyde in PBS. After fixation, the cell monolayer was washed in PBS. The cells were collected by gentle scraping using a rubber policeman, and centrifuged. The pellet was embedded in 1% agarose to facilitate handling. Post-fixation was performed in 1% osmium tetroxide in distilled water for 1 hr, followed by washing three times in distilled water, enbloc staining with 2% uranyl acetate for 30 min in dark, and washing three times in distilled water. […]

[4] = previous in vitro studies, cited from earlier work

CC1(C)CCCC(C)(C)N1[O] [tempo, 2,2,6,6-tetramethylpiperidine-N-oxyl]
tumor growth rate [1]: significant decline in tumor growth rate | level of apoptosis (increase) (LNCaP cells [2]; 1 mM, 24 hr): approximately 12 fold | level of apoptosis (increase) (LNCaP cells [2]; 5 mM, 4 hr): approximately 15 fold | increase in the number of apoptotic cells (PC-3 cells): ~6.7 fold | increase in the number of apoptotic cells (DU145 cells): approximately 3.4 fold | cell morphology at the light microscopic level (LNCaP cells [3]; 2.5 mM): distinct change in cell morphology from spindle shaped, highly refractile appearance to a more flattened appearance | cells with pronounced vacuolation throughout the cytoplasm (LNCaP cells [3]; electron microscopy, 5 mM, 24 hr): more than 90%

CC1(C)CC(O)CC(C)(C)N1[O] [tempol, 4-hydroxy-tempo, reference compound]
protection factor ([4]; 100 mM, radioprotection): 2.2 | concentration required to provide radioprotection [4]: 5 to 10 mM
